{
  "source": "patent US20250319073A1",
  "about": "“COMPOSITIONS AND METHODS FOR THE TREATMENT OF HUNTINGTON’S DISEASE AND HTT PROTEINOPATHIES” (priority 2022, published 2025)",
  "key": {"[1]": {"assay": "Body weight of R6/2 mice under chronic treatment", "assay_type": "in vivo, mouse", "experimental": "Study Summary-A total of 46 male R6/2 mice and 15 male wild-type littermate control mice (WT) were used in the study. The mice were genotyped and the R6/2 mice were divided into different treatment groups based on their pre-treatment body weight. The treatment with Compound (Ia) (0.5 or 5 mg/kg; 10 ml/kg, intraperitoneally (i.p.), QD) or Vehicle (10 ml/kg, i.p., QD) was started at 4 weeks of age. Body weights were measured before the treatment onset and continued twice a week until the end of the study. Fine motor kinematic analysis and rotarod test were performed at 10 weeks of age and the open field activity and clasping behavior were measured at 12 weeks of age for all mice. At 8 and 12 weeks of age the glucose uptake was measured by ^18F-FDG PET and the striatal metabolites were measured using MR spectroscopy for 9-10 mice per group. At 13 weeks of age 9-10 mice per group were subjected to tissue sample collection, and the brain and blood samples were collected. The blood samples were used to prepare peripheral blood mononuclear cells (PBMCs) on which the flow cytometry/luminescence analysis was performed for following assays: mitochondrial reactive oxygen species (ROS) (MitoSox), and ATP levels (Cell TiterGlow). […] Body Weights-Body weights were measured at 4 weeks of age (pre-treatment) and twice a week until the end of the study. […]"}, "[2]": {"system": "R6/2 mice", "assay": "18F-FDG PET brain glucose uptake in R6/2 mice", "assay_type": "in vivo, mouse", "experimental": "Study Summary—A total of 46 male R6/2 mice and 15 male wild-type littermate control mice (WT) were used in the study. The mice were genotyped and the R6/2 mice were divided into different treatment groups based on their pre-treatment body weight. The treatment with Compound (Ia) (0.5 or 5 mg/kg; 10 ml/kg, intraperitoneally (i.p.), QD) or Vehicle (10 ml/kg, i.p., QD) was started at 4 weeks of age. Body weights were measured before the treatment onset and continued twice a week until the end of the study. Fine motor kinematic analysis and rotarod test were performed at 10 weeks of age and the open field activity and clasping behavior were measured at 12 weeks of age for all mice. At 8 and 12 weeks of age the glucose uptake was measured by ^18F-FDG PET and the striatal metabolites were measured using MR spectroscopy for 9-10 mice per group. At 13 weeks of age 9-10 mice per group were subjected to tissue sample collection, and the brain and blood samples were collected. The blood samples were used to prepare peripheral blood mononuclear cells (PBMCs) on which the flow cytometry/luminescence analysis was performed for following assays: mitochondrial reactive oxygen species (ROS) (MitoSox), and ATP levels (Cell TiterGlow).\n^18F-FDG-PET Analysis—At 8 and 12 weeks of age, 9 mice per group were fasted overnight (water allowed ad libitum) to standardize the blood glucose level. […]"}},
  "data": [
    {"molecule": "Cc1cc(O)cc(C)c1C[C@H](NC(=O)[C@H](N)CCCNC(=N)N)C(=O)N[C@@H](CCCCN)c1nc(Cc2ccccc2)no1.Cl.Cl", "note": "[Compound (Ia), (R)-2-amino-N—((S)-1-(((S)-5-amino-1-(3-benzyl-1,2,4-oxadiazol-5-yl)pentyl)amino)-3-(4-hydroxy-2,6-dimethylphenyl)-1-oxopropan-2-yl)-5-guanidinopentanamide]", "values": [
      {"measurement": "body weight compared to vehicle treated R6/2 mice", "setting": "[1]; 5 mg/kg i.p. QD", "value": "non-significantly higher level"},
      {"measurement": "body weight, treated R6/2 groups vs vehicle treated R6/2 mice", "setting": "[1]; 0.5 or 5 mg/kg i.p. QD from 4 to 13 weeks of age, p>0.05, Mixed-effects model (REML)", "value": "no significant differences"},
      {"measurement": "18F-FDG uptake (radioactivity) in olfactory bulb compared to vehicle treated R6/2 mice", "setting": "[2]; 5 mg/kg i.p. QD, 12 weeks of age, p<0.05, Mixed-effects model (REML)", "value": "statistically significantly higher radioactivity"},
      {"measurement": "18F-FDG uptake in various brain areas", "setting": "[2]; i.p. QD, trend, not statistically significant except olfactory bulb", "value": "increased"}
    ]}
  ]
}
